Data as given in US7795220B2, “Conformationally constrained parathyroid hormones with alpha-helix stabilizers” (The General Hospital Corporation, priority 2003, dated 2010).
Non-standard residues stand in square brackets, D forms with d. Residues, ends and D or L forms follow the SMILES beside them. hArg = N=C(N)NCCCC[C@H](N)C(=O)O; Ac5c = NC1(C(=O)O)CCCC1; Aib = CC(C)(N)C(=O)O

Experiments:
hP1R = target: T1, hP1R (Homo sapiens, UniProt Q03431); experiment: Stimulation of inositol phosphate production / phospholipase C in COS-7 cells; type: cell-based
T1 construct: expressed in transfected cells; host or cells: COS-7, transient transfection (FuGENE 6)
T1 sequence (Q03431 27-593): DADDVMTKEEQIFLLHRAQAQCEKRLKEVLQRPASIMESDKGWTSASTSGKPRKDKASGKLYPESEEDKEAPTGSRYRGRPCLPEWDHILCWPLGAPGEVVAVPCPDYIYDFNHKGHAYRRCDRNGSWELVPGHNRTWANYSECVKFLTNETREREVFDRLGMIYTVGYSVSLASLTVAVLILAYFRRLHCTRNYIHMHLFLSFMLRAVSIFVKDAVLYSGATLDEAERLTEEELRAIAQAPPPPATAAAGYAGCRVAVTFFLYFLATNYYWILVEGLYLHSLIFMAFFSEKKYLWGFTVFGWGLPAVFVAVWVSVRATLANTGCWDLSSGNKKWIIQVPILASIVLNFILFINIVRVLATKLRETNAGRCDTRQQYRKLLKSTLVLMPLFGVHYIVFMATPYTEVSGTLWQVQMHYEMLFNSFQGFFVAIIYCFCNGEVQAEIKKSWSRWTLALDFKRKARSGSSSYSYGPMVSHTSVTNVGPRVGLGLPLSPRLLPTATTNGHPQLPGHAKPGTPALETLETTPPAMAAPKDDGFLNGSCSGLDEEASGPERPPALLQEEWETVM
From the text: Cell Culture. The cell line HKRK-B28 (Takasu, H., et al., J. Bone Miner. Res. 14:11-20 (1999)) was derived from the porcine kidney cell line, LLC-PK1 by stable transfection with plasmid DNA encoding a recombinant P1R chimera comprised of the opposum P1R from the N-terminus to the mid region of TM3 and the rat P1R from the mid region of TM3 to the C-terminus. The surface density of the P1R in these cells is ˜280,000 receptors per cell. The clonal cell line LdelNt-2 was derived from LLC-PK, cells via stable transfection with a plasmid encoding P1R-delNt, a recombinant human PTH-1 receptor construct in which most of the amino-terminal extracellular domain is deleted. These cells, as well as COS-7 cells and SaOS-2-B10 cells, were cultured at […] in T-75 flasks ([…]) in Dulbecco's modified Eagle's medium (DMEM) supplemented with fetal bovine serum (10%), penicillin G (20 units/ml), streptomycin sulfate (20 μg/ml) and amphotericin B (0.05 μg/ml) in a humidified atmosphere containing 5% CO2. […]
Stimulation of Inositol Phosphate Production. […] The lysate was then applied to an ion exchange column (0.5 mL resin bed) and the total inositol phosphates were eluted as described previously (Berridge, M. J., et al., Biochem. J. 212:473-482 (1983)), and counted in liquid scintillation cocktail.

[1] = target: T2, P1R (recombinant P1R chimera) in HKRK-B28 cells (UniProt P25107+P25961, A364S/A509S/A517P/A524T/DEL519-521/E344G/G506A/H528S/I365V/I416T/I429T/K402R/K465R/L320I/M408V/N352H/S511P/S523T/T335G/T421L/T487S/V367L/V433I); experiment: biochemical; type: binding, opposum/rat chimera; conditions: B28 cells
T2 construct: the opposum P1R from the N-terminus to the mid region of TM3; the rat P1R from the mid region of TM3 to the C-terminus; expressed in transfected cells
From the text: Cell Culture. The cell line HKRK-B28 (Takasu, H., et al., J. Bone Miner. Res. 14:11-20 (1999)) was derived from the porcine kidney cell line, LLC-PK1 by stable transfection with plasmid DNA encoding a recombinant P1R chimera comprised of the opposum P1R from the N-terminus to the mid region of TM3 and the rat P1R from the mid region of TM3 to the C-terminus. The surface density of the P1R in these cells is ˜280,000 receptors per cell. The clonal cell line LdelNt-2 was derived from LLC-PK, cells via stable transfection with a plasmid encoding P1R-delNt, a recombinant human PTH-1 receptor construct in which most of the amino-terminal extracellular domain is deleted. These cells, as well as COS-7 cells and SaOS-2-B10 cells, were cultured at […] in T-75 flasks ([…]) in Dulbecco's modified Eagle's medium (DMEM) supplemented with fetal bovine serum (10%), penicillin G (20 units/ml), streptomycin sulfate (20 μg/ml) and amphotericin B (0.05 μg/ml) in a humidified atmosphere containing 5% CO2. Stock solutions of EGTA/trypsin and antibiotics were from GLBCO; fetal bovine serum was from Hyclone Laboratories (Logan, Utah). COS-7 cells sub-cultured in 24-well plates were transfected with plasmid DNA (200 ng per well) encoding the wild-type human P1R or truncated human P1R deleted for residues (24-181) (Shimizu, M., et al., J. Biol. Chem. 275:21836-21843 (2000)) that was purified by cesium chloride/ethidium bromide density gradient centrifugation, and FuGENE 6 transfection reagent (Roche Indianapolis Ind.) according to the manufacturer's recommended procedure. All cells, in 24-well plates, were treated with fresh media and shifted to 33° C. for 12 to 24 h prior to assay.
Competition Binding. Binding reactions were performed with HKRK-B28 cells or in COS-7 cells in 24-well plates. The cells were rinsed with 0.5 mL of binding buffer, and then treated successively with 100 μL binding buffer, 100 μL of binding buffer containing various amounts of unlabeled competitor ligand, and 100 μL of binding buffer containing ca. 100,000 cpm of ^125I-[Aib^1,3,Nle^8,Gln^10,Har^11,Ala^12,Trp^14,Arg^19,Tyr^21]rPTH(1-21) (SEQ. ID. NO. 36) (ca. 26 fmol; final volume=300 μL). Incubations were 4 to 6 h at 4° C., at which time near equilibrium conditions were attained. Cells were then placed on ice, the binding medium was removed, and the monolayer was rinsed three times with 0.5 mL of cold binding buffer. The cells were subsequently lysed with 0.5 mL 5N NaOH and counted for radioactivity. For each tracer and in each experiment, the non-specific binding was determined as the radioactivity that bound in the presence of the same unlabeled peptide at a concentration of 1 μM, and was ˜1% of total radioactivity added for each tracer. The maximum specific binding (B0) was the total radioactivity bound in the absence of competing ligand, corrected for nonspecific binding, and for each tracer, ranged from 8% to 20% of the total radioactivity added. Nonlinear regression was used to calculate binding IC50 values (see below). Scatchard transformations of homologous competition binding data derived from studies with 26 fmol of ^125I-[Aib^1,3,Nle^8,Gln^10,Har^11,Ala^12,Trp^14, Arg^19,Tyr^21]rPTH(1-21) (SEQ. ID. NO. 36) were employed for estimations of apparent equilibrium dissociation constant (kDapps) and total number of ligand binding sites (Bmax), assuming a single class of binding sites and equal affinities of the iodinated and non iodinated ligand.
Data Calculation. Calculations were performed using Microsoft® Excel. Nonlinear regression analyses of binding and cAMP dose-response data were performed using the four-parameter equation: yp=Min+[(Max−Min)/(1+(IC50/x)^slope)]. The Excel Solver function was utilized for parameter optimization, as described previously (Carter, P. H., et al., Endocrinology 140: 4972-4981 (1999); Bowen, W. P., and Jerman, J. C., Trends in Pharmacol. Sci. 16: 413-417 (1995)). […]

T2 sequence (P25107+P25961 fused with the stated changes): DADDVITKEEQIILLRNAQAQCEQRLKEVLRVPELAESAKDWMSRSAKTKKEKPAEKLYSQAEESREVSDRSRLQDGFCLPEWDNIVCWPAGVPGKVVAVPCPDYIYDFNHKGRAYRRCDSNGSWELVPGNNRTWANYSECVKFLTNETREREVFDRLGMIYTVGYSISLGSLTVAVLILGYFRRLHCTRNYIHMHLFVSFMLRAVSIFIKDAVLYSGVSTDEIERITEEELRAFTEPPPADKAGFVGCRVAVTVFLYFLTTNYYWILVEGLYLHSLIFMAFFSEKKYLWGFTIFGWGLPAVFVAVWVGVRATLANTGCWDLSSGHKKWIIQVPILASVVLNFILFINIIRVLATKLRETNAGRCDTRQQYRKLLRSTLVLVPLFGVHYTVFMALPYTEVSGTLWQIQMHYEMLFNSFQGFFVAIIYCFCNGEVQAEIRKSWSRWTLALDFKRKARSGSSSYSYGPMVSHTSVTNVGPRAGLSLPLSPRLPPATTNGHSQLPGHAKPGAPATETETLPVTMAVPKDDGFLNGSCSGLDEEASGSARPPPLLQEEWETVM

CC[C@H](C)[C@H](NC(=O)[C@H](CCC(=O)O)NC(=O)C(C)(C)NC(=O)[C@@H](NC(=O)C1(N)CCCC1)C(C)C)C(=O)N[C@@H](CCC(N)=O)C(=O)N[C@@H](CC(C)C)C(=O)N[C@@H](CCSC)C(=O)N[C@@H](Cc1c[nH]cn1)C(=O)N[C@@H](CCC(N)=O)C(=O)N[C@@H](CCCCNC(=N)N)C(=O)N[C@@H](C)C(=O)N[C@@H](CCCCN)C(=O)N[C@@H](Cc1c[nH]c2ccccc12)C(N)=O [[Ac5c^1,Aib^3,M]PTH(1-14), [Ac5c^1,Aib^3,Gln^10,Har^11,Ala^12,Trp^14]PTH(1-14)NH2] (H-[Ac5c]V[Aib]EIQLMHQ[hArg]AKW-NH2)
potency for stimulating phospholipase C relative to [Aib1,3,M]PTH(1-14) (hP1R): 2 fold | potency for inhibiting tracer binding relative to [Aib1,3,M]PTH(1-14) [1]: 2 fold
